We go through four molecules from patent publication US9682991B2, “Tricyclic compounds for use as kinase inhibitors” (FUNDACIÓN CENTRO NACIONAL DE INVESTIGACIONES ONCOLOGICAS …, priority 2009, dated 2017).

Where two headings read alike, the source gives them in different places. Some results are limits rather than exact numbers.

As usually defined, the EC50 is the concentration that produces a half-maximal response. Usually IC50 stands for the concentration needed to halve the response being measured.

The subject of assay [1] is HTC116 cells (colon carcinoma). In words: MTT in vitro cell proliferation / combination assay, HTC116. It counts as cell-based. As for the experimental part: (§1) A combination index score is calculated by the Chou and Talalay method (CalcuSyn software, Biosoft). The strength of synergy is scored using the ranking system Chou and Talalay: CI less than 0.8 indicates synergy, CI between 0.8 and 1.2 indicates additivity and CI greater than 1.2 indicates antagonism.
(§2) The EC50 values of representative combinations were also calculated. The individually measured EC50 values of the chemotherapeutic agent and the example compounds are compared to the EC50 value of the combination. The cell lines are characterised by tumor type.

The subject of assay [2] is NCI H1975 cells (non small cell lung carcinoma). The experiment in a line: MTT in vitro cell proliferation / combination assay, NCI H1975. In kind it is cell-based. Here is the method: as §1, §2
(§3) Blanco-Aparicio, Carmen; Collazo, Ana Maria Garcia; Oyarzabal, Julen; Leal, Juan F.; Albaran, Maria Isabel; Lima, Francisco Ramos; Pequeno, Belen; Ajenjo, Nuria; Becerra, Mercedes; Alfonso, Patricia; Reymundo, Maria Isabel; Palacios, Irene; Mateos, Genoveva; Quinones, Helena; Corrionero, Ana; Carnero, Amancio; Pevarello, Paolo; Lopez, Ana Rodriguez; Fominaya, Jesus; Pastor, Joaquin; Bischoff, James R. Cancer Letters (Shannon, Ireland) 2011, 300(2), 145-153.

The test system of a further assay is DU145 cells (prostate). The experiment in a line: MTT in vitro cell proliferation / combination assay, DU145. In kind it is cell-based. Conditions: for EC50: Homo sapiens, DU-145. As for the experimental part:
(§4) Proliferation assays (MTT) were performed as described in: • “Chemical interrogation of FOXO3a nuclear translocation identifies potent and selective inhibitors of phosphoinositide 3-kinases”, W. Link, J. Oyarzabal, B. G. Serelde, M. I. Albarran, O. Rabal, A. Cebria, P. Alfonso, J. Fominaya, O. Renner, S. Peregrina, D. Soilan, P. A. Ceballos, A. I. Hernandez, M. Lorenzo, P. Pevarello, T. G. Granda, G. Kurz, A. Carnero, J. R. Bischoff, J. Biol. Chem. 284 (2009) 28392-28400. Combination Assay
as §1, §2
(§5) Combination assays were performed as described in: • “Pim 1 kinase inhibitor ETP-45299 suppresses cellular proliferation and synergizes with PI3K inhibition”. Blanco-Aparicio, Carmen; Collazo, Ana Maria Garcia; Oyarzabal, Julen; Leal, Juan F.; Albaran, Maria Isabel; Lima, Francisco Ramos; Pequeno, Belen; Ajenjo, Nuria; Becerra, Mercedes; Alfonso, Patricia; Reymundo, Maria Isabel; Palacios, Irene; Mateos, Genoveva; Quinones, Helena; Corrionero, Ana; Carnero, Amancio; Pevarello, Paolo; Lopez, Ana Rodriguez; Fominaya, Jesus; Pastor, Joaquin; Bischoff, James R. Cancer Letters (Shannon, Ireland) 2011, 300(2), 145-153.

Assay [3] relates to MiaPaca-2 cells (pancreas). The experiment in a line: MTT in vitro cell proliferation / combination assay, MiaPaca-2. Conditions: for EC50: Homo sapiens, MIA PaCa-2. It counts as cell-based. Here is the method: as §4, §1, §2, §5
For assay [4], the system named is Jeko-1 cells (Mantle cell lymphoma). In words: MTT in vitro cell proliferation / combination assay, Jeko-1. The settings on record: for EC50: Homo sapiens. In kind it is cell-based. Here is the method: as §1, §2, §3
In assay [5] the test system is MV4:11 cells (leukemia, AML). In words: MTT in vitro cell proliferation / combination assay, MV4:11. The settings on record: for EC50: Homo sapiens, MV4:11, example compound alone. It counts as cell-based. As for the experimental part:
as §1
(§6) The EC50 values of representative combinations were also calculated. The individually measured EC50 values of the chemotherapeutic agent and the example compounds are compared to the EC50 value of the combination. The cell lines are characterised by tumor type. […]

The test system of the next assay is SKMel19 cells (melanoma). In words: MTT in vitro cell proliferation / combination assay, SKMel19. It counts as cell-based. Here is the method:
as §1, §6

Assay [6] has as its system A549 cells (lung adenocarcinoma). The experiment in a line: MTT in vitro cell proliferation / combination assay, A549. In kind it is cell-based. Here is the method: as §1, §2, §3
A further assay has as its target PIM-1 (Homo sapiens (Human), UniProt P11309). In words: PIM-1 biochemical assay (ADP Hunter). The settings on record: read-out: PIM1 IC50; semi-quantitative.
For assay [7], the system named is Mantle cell lymphoma cells. The experiment in a line: MTT in vitro cell proliferation / combination assay, mantle cell lymphoma (cell line not given). In kind it is cell-based. The settings on record: Mantle cell lymphoma (cell line cell empty). Here is the method:
as §4, §1, §2, §5

Setting [8] is: HTC116, combination with PD-0325901.
The mark [9] stands for this setting: HTC116, combination with lapatinib.
Where [10] appears, read: NCI H1975, combination with GDC-0941.
[11] abbreviates: DU145, combination with Taxotere.
Where [12] appears, read: MiaPaca-2, combination with lapatinib.
Where [13] appears, read: Jeko-1, combination with GDC-0941.
Setting [14] is: Jeko-1, combination with lapatinib.
[15] abbreviates: MV4:11, combination with GDC-0941.
Where [16] appears, read: MV4:11, combination with lapatinib.
The mark [17] stands for this setting: SKMel19, combination with GDC-0879.
[18] abbreviates: SKMel19, combination with GDC-0941.
[19] abbreviates: A549, combination with GDC-0941.

Chain of PIM-1 (P11309 whole entry): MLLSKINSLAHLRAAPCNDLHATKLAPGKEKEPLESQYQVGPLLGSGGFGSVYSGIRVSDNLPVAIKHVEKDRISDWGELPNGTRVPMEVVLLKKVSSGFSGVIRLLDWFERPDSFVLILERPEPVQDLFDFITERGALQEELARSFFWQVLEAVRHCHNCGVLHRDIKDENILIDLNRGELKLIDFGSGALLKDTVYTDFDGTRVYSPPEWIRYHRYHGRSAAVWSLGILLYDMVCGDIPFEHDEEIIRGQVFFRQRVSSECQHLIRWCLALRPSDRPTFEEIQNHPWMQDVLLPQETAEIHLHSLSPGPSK

For `CN1CCOc2c1c(N1CCC3(CC1)CC(N)C3)nn1c(-c3cccc(OC(F)(F)F)c3)nnc21` [Example 48, 7-[6-Methyl-3-(3-trifluoromethoxy-phenyl)-7,8-dihydro-6H-9-oxa-1,2,3a,4,6-pentaaza-cyclopenta[a]naphthalen-5-yl]-7-aza-spiro[3.5]non-2-ylamine], the “Combination Index (CI)” value in assay [1] (setting [8]) is reported as 0.759; in assay [1] (setting [9]), 0.608; in assay [2] (setting [10]), 0.038; in the assay with DU145 cells (prostate) (setting [11]), 0.704; in assay [3] (setting [12]), 0.57; in [4] (setting [13]) it was 0.718. For the same molecule, the “Combination Index (CI)” value in assay [4] (setting [14]) was determined as 0.244; in assay [5] (setting [15]), 0.3; in assay [5] (setting [16]), 0.548; in the assay with SKMel19 cells (melanoma) (setting [17]), 0.319; in the assay on SKMel19 cells (melanoma) (setting [18]), 0.571; in assay [6] (setting [19]), 0.12. Also, the Synergy entry in assay [1] (setting [8]) is reported as “+ (0.7<C1<1.2)”; in assay [1] (setting [9]), “++ (0.3<C1<0.7)”; in [2] (setting [10]), “++++ (CI<0.1)”; in the assay with DU145 cells (prostate) (setting [11]) it was “+ (0.7<C1<1.2)”; in assay [3] (setting [12]) it was “++ (0.3<C1<0.7)”; in assay [4] (setting [13]) it was “+ (0.7<C1<1.2)”. The Synergy result was “+++ (0.1<CI<0.3)” in assay [4] (setting [14]); “+++ (0.1<CI<0.3)” in [5] (setting [15]); “++ (0.3<C1<0.7)” in assay [5] (setting [16]); “++ (0.3<C1<0.7)” in the assay on SKMel19 cells (melanoma) (setting [17]); “++ (0.3<C1<0.7)” in the assay on SKMel19 cells (melanoma) (setting [18]); “+++ (0.1<CI<0.3)” in [6] (setting [19]). Also, the concentration giving a half-maximal response (EC50) was found to be 10 µM in [1] (HTC116, example compound alone, read-out: Example EC50); 5 µM in assay [2] (Homo sapiens, NCI H1975, example compound alone); 15 µM in the assay on DU145 cells (prostate) (DU145, example compound alone, read-out: Example EC50); 5 µM in [3] (MiaPaca-2, example compound alone, read-out: Example EC50); 2.5 µM in assay [4] (Jeko-1, example compound alone, read-out: Example EC50); 1 µM in assay [5]. Also, the EC50 in the assay with SKMel19 cells (melanoma) (Homo sapiens, SK-MEL19, SKMel19, example compound alone) stood at 3 µM; in the assay on SKMel19 cells (melanoma) (SKMel19, example compound alone), 4 µM; in assay [6] (Homo sapiens, A549, example compound alone), 6 µM. Further, at PIM-1, the IC50 is below 0.1 µM.

With `CC(=O)O[C@@]12CO[C@@H]1C[C@H](O)[C@@]1(C)C(=O)[C@H](O)C3=C(C)[C@@H](OC(=O)[C@H](O)[C@@H](NC(=O)OC(C)(C)C)c4ccccc4)C[C@](O)([C@@H](OC(=O)c4ccccc4)[C@H]21)C3(C)C` [Taxotere, (2R,3S)—N-carboxy-3-phenylisoserine, N-tert-butyl ester, 13-ester with 5,20-epoxy-1,2,4,7,10,13-hexahydroxytax-11-en-9-one 4-acetate 2-benzoate, trihydrate, reference compound], the EC50 in the assay on DU145 cells (prostate) (DU145, chemotherapeutic alone, read-out: Chemoth EC50) amounted to 0.025 µM.

Consider `CS(=O)(=O)CCNCc1ccc(-c2ccc3ncnc(Nc4ccc(OCc5cccc(F)c5)c(Cl)c4)c3c2)o1` [lapatinib, N-(3-chloro-4-(3-fluorobenzyloxy)phenyl)-6-(5-((2-(methylsulfonyl)ethylamino)-methyl)furan-2-yl)quinazolin-4-amine, reference compound], for which the EC50 in assay [1] (HTC116, chemotherapeutic alone, read-out: Chemoth EC50) was determined as 10 µM; in assay [7] (chemotherapeutic alone, read-out: Chemoth EC50), 5 µM; in assay [3] (MiaPaca-2, chemotherapeutic alone, read-out: Chemoth EC50), 20 µM; in [4] (Jeko-1, chemotherapeutic alone, read-out: Chemoth EC50) it was 5 µM.

Regarding `CN1CCC(CNc2nn3c(-c4cccc(OC(F)(F)F)c4)nnc3c3c2N(C)CCO3)CC1` [Example 16, (1-Methyl-piperidin-4-ylmethyl)-[6-methyl-3-(3-trifluoromethoxy-phenyl)-7,8-dihydro-6H-9-oxa-1,2,3a,4,6-pentaaza-cyclopenta[a]naphthalen-5-yl]-amine], the “Combination Index (CI)” value in assay [7] (combination with lapatinib) is reported as 0.289; in assay [5] (setting [15]) it was 0.585. Further, the Synergy result in [7] (combination with lapatinib) was “+++ (0.1<CI<0.3)”; in assay [5] (setting [15]), “++ (0.3<C1<0.7)”. In addition, the EC50 in assay [7] (example compound alone, read-out: Example EC50) came to 10 µM; in [5], 5 µM. Also, the 50% inhibitory concentration (IC50) on PIM-1 is below 0.1 µM.
